# In patent US9125913B2, “Bcl-2-selective apoptosis-inducing agents for the treatment of cancer and immune diseases” (AbbVie Inc., priority 2008, dated 2015):
# System: GST-Bcl-2
# Experiment: TR-FRET binding assay, Bcl-2
# Settings: TR-FRET Ki values
# Outline: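 Ki values come from Wang's competitive-binding equation applied to TR-FRET signal (excitation 340/35 nm; emission 520/525 nm F-Bak peptide, 495/510 nm Tb antibody). Protein, probe and antibody incubated with compound 3 h at room temperature; dilution series began at 50 μM as 2× stock in 10% DMSO.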
row,SMILES,Binding selectivity ratio (Bcl-XL Ki/Bcl-2 Ki)
1,"CC1(C)CCC(CN2CCN(c3ccc(C(=O)NS(=O)(=O)c4ccc(NC5CCN(CCCC(F)(F)F)CC5)c([N+](=O)[O-])c4)c(Oc4ccc5[nH]ccc5c4)c3)CC2)=C(c2ccc(Cl)cc2)C1 [EXAMPLE 216, 4-(4-{[2-(4-chlorophenyl)-4,4-dimethylcyclohex-1-en-1-yl]methyl}piperazin-1-yl)-2-(1H-indol-5-yloxy)-N-[(3-nitro-4-{[1-(4,4,4-trifluorobutyl)piperidin-4-yl]amino}phenyl)sulfonyl]benzamide]",>1073.2
2,"CN(C)CCCNc1ccc(S(=O)(=O)NC(=O)c2ccc(N3CCN(Cc4ccccc4-c4ccc(Cl)cc4)CC3)cc2Oc2ccc3cc[nH]c3c2)cc1[N+](=O)[O-] [Example 47, 4-{4-[(4′-chloro-1,1′-biphenyl-2-yl)methyl]piperazin-1-yl}-N-[(4-{[3-(dimethylamino)propyl]amino}-3-nitrophenyl)sulfonyl]-2-(1H-indol-6-yloxy)benzamide]",15.7
3,"O=C(NS(=O)(=O)c1ccc(NCC2CCOCC2)c([N+](=O)[O-])c1)c1ccc(N2CCN(Cc3cc(OCCN4CCOCC4)ccc3-c3ccc(Cl)cc3)CC2)cc1Oc1ccccc1 [Example 115, 4-(4-{[4′-chloro-4-(2-morpholin-4-ylethoxy)-1,1′-biphenyl-2-yl]methyl}piperazin-1-yl)-N-({3-nitro-4-[(tetrahydro-2H-pyran-4-ylmethyl)amino]phenyl}sulfonyl)-2-phenoxybenzamide]",156.4
4,"CN(C)CCOc1cccc(-c2ccc(Cl)cc2)c1CN1CCN(c2ccc(C(=O)NS(=O)(=O)c3ccc(NCC4CCOCC4)c(S(=O)(=O)C(F)(F)F)c3)c(Oc3ccccc3)c2)CC1 [Example 124, 4-[4-({4′-chloro-3-[2-(dimethylamino)ethoxy]-1,1′-biphenyl-2-yl}methyl)piperazin-1-yl]-2-phenoxy-N-({4-[(tetrahydro-2H-pyran-4-ylmethyl)amino]-3-[(trifluoromethyl)sulfonyl]phenyl}sulfonyl)benzamide]",220.1
5,"CC1(C)CCC(CN2CCN(c3ccc(C(=O)NS(=O)(=O)c4cnc(OC[C@@H]5CCN(CC(F)F)C5)c(Cl)c4)c(Oc4cccc5[nH]ncc45)c3)CC2)=C(c2ccc(Cl)cc2)C1 [EXAMPLE 445, N-[(5-chloro-6-{[(3R)-1-(2,2-difluoroethyl)pyrrolidin-3-yl]methoxy}pyridin-3-yl)sulfonyl]-4-(4-{[2-(4-chlorophenyl)-4,4-dimethylcyclohex-1-en-1-yl]methyl}piperazin-1-yl)-2-(1H-indazol-4-yloxy)benzamide]",484.2
6,"CC1(C)CCC(CN2CCN(c3ccc(C(=O)NS(=O)(=O)c4ccc(OCC5(C)COC5)c([N+](=O)[O-])c4)c(Oc4ccc5[nH]ccc5c4)c3)CC2)=C(c2ccc(Cl)cc2)C1 [EXAMPLE 286, 4-(4-{[2-(4-chlorophenyl)-4,4-dimethylcyclohex-1-en-1-yl]methyl}piperazin-1-yl)-2-(1H-indol-5-yloxy)-N-({4-[(3-methyloxetan-3-yl)methoxy]-3-nitrophenyl}sulfonyl)benzamide]",>1165.0
7,"CC1(C)CCC(CN2CCN(c3ccc(C(=O)NS(=O)(=O)c4ccc(N[C@@H]5CCN(CC#N)C5)c([N+](=O)[O-])c4)c(Oc4cccc5[nH]cnc45)c3)CC2)=C(c2ccc(Cl)cc2)C1 [EXAMPLE 428, 2-(1H-benzimidazol-4-yloxy)-4-(4-{[2-(4-chlorophenyl)-4,4-dimethylcyclohex-1-en-1-yl]methyl}piperazin-1-yl)-N-[(4-{[(3R)-1-(cyanomethyl)pyrrolidin-3-yl]amino}-3-nitrophenyl)sulfonyl]benzamide]",5832
8,"O=C(NS(=O)(=O)c1ccc(NCC2CCOCC2)c([N+](=O)[O-])c1)c1ccc(N2CCN(Cc3ccccc3-c3ccc(Cl)cc3)CC2)cc1Oc1cccc2ccccc12 [Example 34, 4-{4-[(4′-chloro-1,1′-biphenyl-2-yl)methyl]piperazin-1-yl}-2-(1-naphthyloxy)-N-({3-nitro-4-[(tetrahydro-2H-pyran-4-ylmethyl)amino]phenyl}sulfonyl)benzamide]",44.3
9,"CC1(C)CCC(CN2CCN(c3ccc(C(=O)NS(=O)(=O)c4ccc(NCC5CCOCC5)c([N+](=O)[O-])c4)c(Oc4cccc5[nH]ccc45)c3)CC2)=C(c2ccc(Cl)cc2)C1 [EXAMPLE 244, 4-(4-{[2-(4-chlorophenyl)-4,4-dimethylcyclohex-1-en-1-yl]methyl}piperazin-1-yl)-2-(1H-indol-4-yloxy)-N-({3-nitro-4-[(tetrahydro-2H-pyran-4-ylmethyl)amino]phenyl}sulfonyl)benzamide]",>4136.9
10,"CO[C@H]1CC[C@@H](CNc2ccc(S(=O)(=O)NC(=O)c3ccc(N4CCN(CC5=C(c6ccc(Cl)cc6)CC(C)(C)CC5)CC4)cc3Oc3ccc4[nH]ccc4c3)cc2[N+](=O)[O-])CC1 [EXAMPLE 313, Cis-4-(4-{[2-(4-chlorophenyl)-4,4-dimethylcyclohex-1-en-1-yl]methyl}piperazin-1-yl)-2-(1H-indol-5-yloxy)-N-[(4-{[(4-methoxycyclohexyl)methyl]amino}-3-nitrophenyl)sulfonyl]benzamide]",1500
11,"CC1(C)CCC(CN2CCN(c3ccc(C(=O)NS(=O)(=O)c4ccc(NC5CCN(C6CCOCC6)CC5)c([N+](=O)[O-])c4)c(Oc4ccc5[nH]ccc5c4)c3)CC2CO)=C(c2ccc(Cl)cc2)C1 (centres unmarked) [EXAMPLE 219, 4-[4-{[2-(4-chlorophenyl)-4,4-dimethylcyclohex-1-en-1-yl]methyl}-3-(hydroxymethyl)piperazin-1-yl]-2-(1H-indol-5-yloxy)-N-({3-nitro-4-[(1-tetrahydro-2H-pyran-4-ylpiperidin-4-yl)amino]phenyl}sulfonyl)benzamide]",126.8
12,"CC1(C)CCC(CN2CCN(c3ccc(C(=O)NS(=O)(=O)c4ccc(NCCc5ccc(S(N)(=O)=O)cc5)c([N+](=O)[O-])c4)c(Oc4ccc5[nH]ccc5c4)c3)CC2)=C(c2ccc(Cl)cc2)C1 [EXAMPLE 376, N-{[4-({2-[4-(aminosulfonyl)phenyl]ethyl}amino)-3-nitrophenyl]sulfonyl}-4-(4-{[2-(4-chlorophenyl)-4,4-dimethylcyclohex-1-en-1-yl]methyl}piperazin-1-yl)-2-(1H-indol-5-yloxy)benzamide]",>29.5
13,"CN1CCN(CCNc2ccc(S(=O)(=O)NC(=O)c3ccc(N4CCN(CC5=C(c6ccc(Cl)cc6)CC(C)(C)CC5)CC4)cc3Oc3cccc4[nH]ccc34)cc2[N+](=O)[O-])CC1 [Example 101, 4-(4-{[2-(4-chlorophenyl)-4,4-dimethylcyclohex-1-en-1-yl]methyl}piperazin-1-yl)-2-(1H-indol-4-yloxy)-N-[(4-{[2-(4-methylpiperazin-1-yl)ethyl]amino}-3-nitrophenyl)sulfonyl]benzamide]",121.2
14,"O=C(NS(=O)(=O)c1ccc(NCc2cccs2)c([N+](=O)[O-])c1)c1ccc(N2CCN(Cc3ccccc3-c3ccc(Cl)cc3)CC2)cc1Oc1ccccc1 [Example 162, 4-{4-[(4′-chloro-1,1′-biphenyl-2-yl)methyl]piperazin-1-yl}-N-({3-nitro-4-[(thien-2-ylmethyl)amino]phenyl}sulfonyl)-2-phenoxybenzamide]",123.8
15,"CN(C)CCCNc1ccc(S(=O)(=O)NC(=O)c2ccc(N3CCN(Cc4ccccc4-c4ccc(Cl)cc4)CC3)cc2Oc2ccccc2)cc1C(F)(F)F [Example 92, 4-{4-[(4′-chloro-1,1′-biphenyl-2-yl)methyl]piperazin-1-yl}-N-{[4-{[3-(dimethylamino)propyl]amino}-3-(trifluoromethyl)phenyl]sulfonyl}-2-phenoxybenzamide]",79.7
16,"CC1(C)CCC(CN2CCN(c3ccc(C(=O)NS(=O)(=O)c4ccc(OC[C@@H]5COCCO5)c([N+](=O)[O-])c4)c(Oc4ccc5[nH]ccc5c4)c3)CC2)=C(c2ccc(Cl)cc2)C1 [EXAMPLE 347, 4-(4-{[2-(4-chlorophenyl)-4,4-dimethylcyclohex-1-en-1-yl]methyl}piperazin-1-yl)-N-({4-[(2S)-1,4-dioxan-2-ylmethoxy]-3-nitrophenyl}sulfonyl)-2-(1H-indol-5-yloxy)benzamide]",1256.7
17,"O=C(NS(=O)(=O)c1ccc(NCC2CCOCC2)c([N+](=O)[O-])c1)c1ccc(N2CCN(CC3=C(c4ccc(Cl)cc4)CCN(CCCO)C3)CC2)cc1Oc1cccc2[nH]ccc12 [EXAMPLE 355, 4-(4-{[4-(4-chlorophenyl)-1-(3-hydroxypropyl)-1,2,5,6-tetrahydropyridin-3-yl]methyl}piperazin-1-yl)-2-(1H-indol-4-yloxy)-N-({3-nitro-4-[(tetrahydro-2H-pyran-4-ylmethyl)amino]phenyl}sulfonyl)benzamide]",>5489.5
18,"CC1(C)CCC(CN2CCN(c3ccc(C(=O)NS(=O)(=O)c4ccc(NN5CCOCC5)c([N+](=O)[O-])c4)c(Oc4cccc5[nH]ccc45)c3)CC2)=C(c2ccc(Cl)cc2)C1 [EXAMPLE 262, 4-(4-{[2-(4-chlorophenyl)-4,4-dimethylcyclohex-1-en-1-yl]methyl}piperazin-1-yl)-2-(1H-indol-4-yloxy)-N-{[4-(morpholin-4-ylamino)-3-nitrophenyl]sulfonyl}benzamide]",219.9
19,"COCCOCCSc1ccc(S(=O)(=O)NC(=O)c2ccc(N3CCN(CC4=C(c5ccc(Cl)cc5)CC(C)(C)CC4)CC3)cc2Oc2cccc3[nH]ccc23)cc1[N+](=O)[O-] [EXAMPLE 381, 4-(4-{[2-(4-chlorophenyl)-4,4-dimethylcyclohex-1-en-1-yl]methyl}piperazin-1-yl)-2-(1H-indol-4-yloxy)-N-[(4-{[2-(2-methoxyethoxy)ethyl]thio}-3-nitrophenyl)sulfonyl]benzamide]",448.3
20,"CC1(C)CCC(CN2CCN(c3ccc(C(=O)NS(=O)(=O)c4ccc(OCC5CCOCC5)c([N+](=O)[O-])c4)c(Oc4ccc5[nH]ccc5c4)c3)CC2)=C(c2ccc(Cl)cc2)C1 [EXAMPLE 279, 4-(4-{[2-(4-chlorophenyl)-4,4-dimethylcyclohex-1-en-1-yl]methyl}piperazin-1-yl)-2-(1H-indol-5-yloxy)-N-{[3-nitro-4-(tetrahydro-2H-pyran-4-ylmethoxy)phenyl]sulfonyl}benzamide]",>6923.2
